Reference: publication PMC9450471 (Computational Biology and Chemistry, 2022)
Values joined by “and” are separate entries in the source; they are usually repeats but may differ in a detail not shown here. Identical values can stand only once. Like-named read-outs stand apart in the source and are kept apart here.

Tested on: SARS-CoV-2 (Omicron variant, B.1.1.529/BA.5 sublineage)
Format: cell-based
Conditions: for time at which utmost effectiveness against the Omicron variant is reached: after administration/treatment starter

Structure (SMILES)	100% CPE Inhibitory Concentration (CPEIC100)	further results
O=c1[nH]cnc2c([C@@H]3N[C@H](CO)[C@@H](O)[C@H]3O)c[nH]c12 [Forodesine]	1.6 ± 0.065 µM	time at which utmost effectiveness against the Omicron variant is reached: 3.5 to 9.5 h; 100% CPE Inhibitory Concentration (CPEIC100) (listed as forodesine): 1.6 µM
CC(C)Nc1nc2cc(Cl)c(Cl)cc2n1[C@H]1O[C@@H](CO)[C@H](O)[C@@H]1O [Maribavir]	7.986 ± 0.277 µM	–
CC(C)C(=O)OC[C@H]1O[C@@H](n2ccc(NO)nc2=O)[C@H](O)[C@@H]1O [Molnupiravir]	6.19 ± 0.275 µM	100% CPE Inhibitory Concentration (CPEIC100) (listed as molnupiravir): 6.19 µM
COc1nc(N)nc2c1ncn2[C@@H]1O[C@H](CO)[C@@H](O)[C@@H]1O [Nelarabine]	4.105 ± 0.149 µM	–
CCC(CC)COC(=O)[C@H](C)N[P@](=O)(OC[C@H]1O[C@@](C#N)(c2ccc3c(N)ncnn23)[C@H](O)[C@@H]1O)Oc1ccccc1 [Remdesivir]	5.883 ± 0.255 µM	100% CPE Inhibitory Concentration (CPEIC100) (listed as remdesivir): 5.883 µM
CC(C)=CCNc1ncnc2c1ncn2[C@@H]1O[C@H](CO)[C@@H](O)[C@H]1O [Riboprine, N ^6-(2-Isopentenyl)adenosine]	1.11 µM and 1.11 ± 0.047 µM	time at which utmost effectiveness against the Omicron variant is reached: 3.5 to 9.5 h
OC[C@H]1O[C@@H](n2cnc3c(N[C@@H]4CCOC4)ncnc32)[C@H](O)[C@@H]1O [Tecadenoson]	7.645 ± 0.24 µM	–
Nc1ncnc2c1ncn2[C@@H]1O[C@H](CO)[C@@H](O)[C@@H]1O [Vidarabine, Arabinosyladenine]	8.042 ± 0.288 µM	–
